Source: US10562912B2 (C&C Research Laboratories, priority 2013, dated 2020)

Legend:
Format in all cases: cell-based
[1] = system: DU-145; experiment: Cell growth inhibition assay, prostate cancer cell line DU-145; details: Homo sapiens, DU-145 prostate cancer cell line
In short: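 Viability by CellTiter-Glo luminescence after 72–96 h of compound dosing at 37° C. under 5% CO2; DU-145 and HCT116 seeded at 3,000 cells/well, SW626 at 5,000 cells/well.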

[2] = system: U266; experiment: Cell growth inhibition assay, blood cancer cell line U266; details: Homo sapiens, U-266 blood cancer cell line
Method: The inhibitory effects of the compounds of the present invention against the growth of cancer cells were evaluated as shown below. The cancer cell lines including stomach cancer cell line (AGS), breast cancer cell lines (MDA-MB-231, MDA-MB-468, and BT-549), prostate cancer cell lines (LNCaP and DU-145), colon cancer cell line (HCT116), ovarian cancer cell line (SW626), liver cancer cell line (Hep3B), kidney cancer cell line (ACHN), lung cancer cell line (NCI-H23) and blood cancer cell lines (HEL92.1.7 and U266) were cultured under the protocol provided by each supplier. A medium supplemented with 10 ng/mL of IL-6 was used for LNCaP, a prostate cancer cell line, when treated with a drug. Each type of cells to be used in experiments were sub-cultured in a 96-well plate by counting the exact number of cells using Tali™ Image-based Cytometer (Life Technologies). In a 96-well plate, AGS, HCT116, and DU-145 were employed with 3,000 cells/well; NCI-H23, SW626, Hep3B, ACHN, BT-549, MDA-MB-231, HEL92.1.7, and U266 were employed with 5,000 cells/well; and LNCaP and MDA-MB-468 were employed with 10,000 cells/well. The cells were treated with the compounds listed in Examples which were diluted in various concentrations. Upon completion of the compounds treatment, AGS, HCT116, SW626, DU145, NCI-H23, Hep3B, ACHN, BT-549, LNCaP, HEL92.1.7, and U266 cells were cultured at 37° C. under 5% CO2 for from 72 to 96 hours, and MDA-MB-231 and MDA-MB-468 cells were cultured at 37° C. in air for from 72 to 96 hours. Subsequently, the cells were observed under microscope and drug precipitation and particular findings were investigated and recorded. And then, the 96-well plate was placed at room temperature for 30 minutes, added with 20 μL/well of CellTiter-Glo solution (Cat No. G7573, Promega) and shaken for 10 minutes, followed by being subjected to the measurement using PHERAstar™ microplate reader (BMG LABTECH) according to the supplier's general luminometer protocol. Wells where only culture liquid added without cell plating were used as a negative control, whereas wells where culture liquid containing 0.1% DMSO instead of the compounds listed in Examples were used as a positive control.

[3] = system: HEL92.1.7; experiment: Cell growth inhibition assay, blood cancer cell line HEL92.1.7; details: Homo sapiens, HEL 92.1.7, HEL92.1.7 blood cancer cell line
In short: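 Cells were seeded at 3,000/well (HCT116, DU-145) or 5,000/well (SW626 and the others) and exposed to serial compound dilutions for 72 to 96 h at 37 °C under 5% CO2. Viability was read as CellTiter-Glo luminescence against 0.1% DMSO and cell-free wells.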

[4] = biological target: T1, STAT3 (Homo sapiens, UniProt P40763); experiment: STAT3 reporter gene assay (luciferase), LNCaP stable cell line (pSTAT3-TA-luc), IL-6 stimulation
T1 construct: plasmid pSTAT3-TA-luc), which contains a stably operating STAT3 promoter; endogenous in cells
T1 sequence (P40763 whole entry): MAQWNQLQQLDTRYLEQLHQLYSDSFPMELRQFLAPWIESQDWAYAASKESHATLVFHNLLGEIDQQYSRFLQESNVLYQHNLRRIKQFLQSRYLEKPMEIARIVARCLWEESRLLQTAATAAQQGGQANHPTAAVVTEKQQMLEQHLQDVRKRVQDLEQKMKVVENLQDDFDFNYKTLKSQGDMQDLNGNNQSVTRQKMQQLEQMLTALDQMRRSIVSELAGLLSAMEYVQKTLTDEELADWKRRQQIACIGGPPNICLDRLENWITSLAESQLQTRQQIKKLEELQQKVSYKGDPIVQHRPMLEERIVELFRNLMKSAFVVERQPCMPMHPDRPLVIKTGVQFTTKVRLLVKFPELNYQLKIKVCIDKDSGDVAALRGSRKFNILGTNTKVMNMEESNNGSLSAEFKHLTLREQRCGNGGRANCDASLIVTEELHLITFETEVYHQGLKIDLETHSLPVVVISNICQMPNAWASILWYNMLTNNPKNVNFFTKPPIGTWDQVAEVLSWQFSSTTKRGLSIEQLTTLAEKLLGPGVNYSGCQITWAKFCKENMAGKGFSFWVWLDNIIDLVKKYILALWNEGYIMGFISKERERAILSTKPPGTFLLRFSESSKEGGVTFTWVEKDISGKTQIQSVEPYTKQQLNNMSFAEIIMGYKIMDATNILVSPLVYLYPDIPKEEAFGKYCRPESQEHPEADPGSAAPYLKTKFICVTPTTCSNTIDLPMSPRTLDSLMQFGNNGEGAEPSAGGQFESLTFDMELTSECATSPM
In short: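 LNCaP cells stably carrying pSTAT3-TA-luc, in RPMI1640 with 3% DCC-FBS, were treated with compound and then stimulated with 10 ng/mL IL-6 for 24–48 h at 37 °C. Luciferase activity was measured in lysates. A parallel plate measured viability by CellTiter-Glo, with stimulated 0.1% DMSO wells as the positive control.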

[5] = system: LNCaP; experiment: Cell growth inhibition assay, prostate cancer cell line LNCaP (medium with 10 ng/mL IL-6); details: Homo sapiens, medium supplemented with 10 ng/mL of IL-6, 10,000 cells/well
[6] = system: MDA-MB-231; experiment: Cell growth inhibition assay, breast cancer cell line MDA-MB-231; details: Homo sapiens; MDA-MB-231 breast cancer cell line, 5,000 cells/well

Row | Structure (SMILES) | IC50 [1] [µM] | IC50 [2] [µM] | IC50 [3] [µM] | IC50 [4] [µM] | IC50 [5] [µM] | IC50 [6] [µM]
1 | CCOc1cc(OC(F)(F)F)cc(C(C)(C)c2cc(Br)cc(NC(=O)c3cc4ccc(NS(C)(=O)=O)cc4[nH]3)c2)c1 [Example 22, N-(3-bromo-5-(2-(3-ethoxy-5-(trifluoromethoxy)phenyl)propan-2-yl)phenyl)-6-(methylsulfonamido)-1H-indole-2-carboxamide] | 0.048 | 0.13 | 0.13 | 0.11 | 0.29 | 0.007
2 | COc1cc(OC(F)(F)F)cc(C(C)(C)c2cc(Cl)cc(NC(=O)c3cc4ccc(NS(C)(=O)=O)cc4[nH]3)c2)c1 [Example 24, N-(3-chloro-5-(2-(3-methoxy-5-(trifluoromethoxy)phenyl)propan-2-yl)phenyl)-6-(methylsulfonamido)-1H-indole-2-carboxamide] | 0.044 | 0.13 | 0.12 | 0.051 | 0.083 | 0.027
3 | CC(C)(c1cc(Cl)cc(NC(=O)c2cc3cc(NS(C)(=O)=O)ccc3s2)c1)c1cc(OCC#N)cc(OC(F)(F)F)c1 [Example 77, N-(3-chloro-5-(2-(3-(cyanomethoxy)-5-(trifluoromethoxy)phenyl)propan-2-yl)phenyl)-5-(methylsulfonamido)benzo[b]thiophene-2-carboxamide] | 0.05 | 0.22 | 0.068 | 0.12 | 0.3 | –
4 | CC(C)Oc1cc(CN2CCOCC2)cc(C(C)(C)c2cc(Br)cc(NC(=O)c3cc4cc(NS(C)(=O)=O)ccc4s3)c2)c1 [Example 122, N-(3-bromo-5-(2-(3-isopropoxy-5-(morpholinomethyl)phenyl)propan-2-yl)phenyl)-5-(methylsulfonamido)benzo[b]thiophene-2-carboxamide] | 0.049 | 0.18 | 0.19 | 0.12 | 0.24 | –
5 | CC(C)Oc1cc(CN2CCN(C(=O)C(C)(C)C)CC2)cc(C(C)(C)c2cc(Cl)cc(NC(=O)c3cc4cc(NS(C)(=O)=O)ccc4s3)c2)c1 [Example 127, N-(3-chloro-5-(2-(3-isopropoxy-5-((4-pivaloylpiperazin-1-yl)methyl)phenyl)propan-2-yl)phenyl)-5-(methylsulfonamido)benzo[b]thiophene-2-carboxamide] | 0.066 | 0.43 | 0.34 | 0.15 | 0.14 | –
6 | CC(C)Oc1cc(CN2CCN(c3noc(C(C)C)n3)CC2)cc(C(C)(C)c2cc(Cl)cc(NC(=O)c3cc4cc(NS(C)(=O)=O)ccc4s3)c2)c1 [Example 129, N-(3-chloro-5-(2-(3-isopropoxy-5-((4-(5-isopropyl-1,2,4-oxadiazol-3-yl)piperazin-1-yl)methyl)phenyl)propan-2-yl)phenyl)-5-(methylsulfonamido)benzo[b]thiophene-2-carboxamide] | 0.06 | 0.28 | 0.24 | 0.07 | 0.12 | –
7 | CC(C)Oc1cc(CN2CCN(C3COC3)CC2)cc(C(C)(C)c2cc(Cl)cc(NC(=O)c3cc4cc(NS(C)(=O)=O)ccc4s3)c2)c1 [Example 130, N-(3-chloro-5-(2-(3-isopropoxy-5-((4-(oxetan-3-yl)piperazin-1-yl)methyl)phenyl)propan-2-yl)phenyl)-5-(methylsulfonamido)benzo[b]thiophene-2-carboxamide] | 0.17 | 0.74 | > 1.1 | 0.308 | 0.76 | –

These reach a lower IC50 [1]. Values come first.

Row | IC50 [1] [µM] | IC50 [2] [µM] | IC50 [3] [µM] | IC50 [4] [µM] | IC50 [5] [µM] | IC50 [6] [µM] | Structure (SMILES)
8 | 0.042 | 0.13 | 0.11 | 0.046 | 0.15 | – | CC(C)Oc1cc(CN2CCN(C(=O)OC(C)(C)C)CC2)cc(C(C)(C)c2cc(Br)cc(NC(=O)c3cc4cc(NS(C)(=O)=O)ccc4s3)c2)c1 [Example 123, tert-butyl 4-(3-(2-(3-bromo-5-(5-(methylsulfonamido)benzo[b]thiophene-2-carboxamido)phenyl)propan-2-yl)-5-isopropoxybenzyl)piperazine-1-carboxylate]
9 | 0.035 | 0.74 | 0.95 | 0.056 | 0.78 | 0.012 | COc1cc(OC(F)(F)F)cc(C(C)(C)c2cccc(NC(=O)c3cc4ccc(NS(C)(=O)=O)cc4[nH]3)c2)c1 [Example 9, N-(3-(2-(3-methoxy-5-(trifluoromethoxy)phenyl)propan-2-yl)phenyl)-6-(methylsulfonamido)-1H-indole-2-carboxamide]
10 | 0.01 | 0.063 | 0.057 | 0.016 | 0.068 | – | CC(C)(c1cc(Cl)cc(NC(=O)c2cc3cc(NS(C)(=O)=O)ccc3s2)c1)c1cc(OC(F)(F)F)cc(OC(F)(F)C(F)F)c1 [Example 80, N-(3-chloro-5-(2-(3-(1,1,2,2-tetrafluoroethoxy)-5-(trifluoromethoxy)phenyl)propan-2-yl)phenyl)-5-(methylsulfonamido)benzo[b]thiophene-2-carboxamide]
11 | 0.009 | 0.023 | 0.044 | 0.007 | 0.032 | 0.005 | COc1cc(OC(F)(F)F)cc(C(C)(C)c2cc(Cl)cc(NC(=O)c3cc4cc(NS(C)(=O)=O)ccc4s3)c2)c1 [Example 42, N-(3-chloro-5-(2-(3-methoxy-5-(trifluoromethoxy)phenyl)propan-2-yl)phenyl)-5-(methylsulfonamido)benzo[b]thiophene-2-carboxamide]
12 | 0.008 | 0.044 | 0.026 | 0.007 | 0.077 | 0.002 | CCOc1cc(OC(F)(F)F)cc(C(C)(C)c2cc(Br)cc(NC(=O)c3cc4cc(NS(C)(=O)=O)ccc4s3)c2)c1 [Example 48, N-(3-bromo-5-(2-(3-ethoxy-5-(trifluoromethoxy)phenyl)propan-2-yl)phenyl)-5-(methylsulfonamido)benzo[b]thiophene-2-carboxamide]
13 | 0.008 | 0.045 | 0.048 | 0.024 | 0.03 | – | CC(C)Oc1cc(OC(F)(F)F)cc(C(C)(C)c2cc(F)cc(NC(=O)c3cc4cc(NS(C)(=O)=O)ccc4s3)c2)c1 [Example 82, N-(3-fluoro-5-(2-(3-isopropoxy-5-(trifluoromethoxy)phenyl)propan-2-yl)phenyl)-5-(methylsulfonamido)benzo[b]thiophene-2-carboxamide]
14 | 0.007 | 0.014 | 0.023 | 0.007 | 0.049 | 0.001 | CC(C)Oc1cc(OC(F)(F)F)cc(C(C)(C)c2cc(Br)cc(NC(=O)c3cc4cc(NS(C)(=O)=O)ccc4s3)c2)c1 [Example 49, N-(3-bromo-5-(2-(3-isopropoxy-5-(trifluoromethoxy)phenyl)propan-2-yl)phenyl)-5-(methylsulfonamido)benzo[b]thiophene-2-carboxamide]
15 | 0.006 | 0.058 | 0.056 | 0.01 | 0.033 | – | CCCOc1cc(OC(F)(F)F)cc(C(C)(C)c2cc(Cl)cc(NC(=O)c3cc4cc(NS(C)(=O)=O)ccc4s3)c2)c1 [Example 73, N-(3-chloro-5-(2-(3-propoxy-5-(trifluoromethoxy)phenyl)propan-2-yl)phenyl)-5-(methylsulfonamido)benzo[b]thiophene-2-carboxamide]
16 | 0.003 | 0.021 | 0.02 | 0.008 | 0.029 | – | CC#CCOc1cc(OC(F)(F)F)cc(C(C)(C)c2cc(Cl)cc(NC(=O)c3cc4cc(NS(C)(=O)=O)ccc4s3)c2)c1 [Example 75, N-(3-(2-(3-(but-2-yn-1-yloxy)-5-(trifluoromethoxy)phenyl)propan-2-yl)-5-chlorophenyl)-5-(methylsulfonamido)benzo[b]thiophene-2-carboxamide]
